The text below walks through data of article PMC3716607, “Inhibition of Histo-blood Group Antigen Binding as a Novel Strategy to Block Norovirus Infections” (PLoS ONE, 2013).

In data set [1] the target is VA387 P dimers binding to type A and B saliva HBGAs (Norovirus GII.4 (Human calicivirus NLV/VA98387/1998), UniProt Q913Z3). Description: biochemical. On the set-up: species or system GII.4 NoV (VA387). As to the method: Saliva-based NoV-HBGA binding assays were performed as described previously using P dimers of VA387 (GII.4) as NoV surrogates and saliva samples and/or synthetic oligosaccharides as HBGA sources, [34], [35]. Briefly, synthetic oligosaccharides and/or boiled saliva samples with defined HBGAs phenotype were coated on 96-well microtiter plates, after blocking with nonfat milk, P dimer of VA387 were added. The bound P dimer was detected using a guinea pig antiserum against NoVs VLPs, followed by the addition of horseradish peroxidase (HRP)-conjugated goat anti-guinea pig IgG. The bound HRP conjugates were colorized by the TMB kit (Kirkegaard & Perry Laboratories), which was read an EIA spectrum reader (Tecan). The synthetic oligosaccharide-PAA conjugates (2 µg/ml, GlycoTech Corporation, Rockville, MD) were captured to a microtiter plate through coated streptavidin (5 µg/ml).
Chain of VA387 P dimers binding to type A and B saliva HBGAs (Q913Z3 entry or part of it): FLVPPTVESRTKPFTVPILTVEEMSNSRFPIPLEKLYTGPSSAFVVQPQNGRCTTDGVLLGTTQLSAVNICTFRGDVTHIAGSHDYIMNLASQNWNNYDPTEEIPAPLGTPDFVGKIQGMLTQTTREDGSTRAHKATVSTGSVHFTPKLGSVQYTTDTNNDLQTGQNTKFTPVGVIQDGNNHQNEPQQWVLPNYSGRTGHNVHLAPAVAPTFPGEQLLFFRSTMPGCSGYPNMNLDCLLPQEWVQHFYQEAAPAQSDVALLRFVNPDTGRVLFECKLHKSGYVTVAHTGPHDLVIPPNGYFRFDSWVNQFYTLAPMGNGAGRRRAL
Blocking effects of the hit compounds were measured by a pre-incubation of the P dimers with the compounds at given concentrations for 30 min before the P dimers were added to the coated saliva samples or HBGA oligosaccharides in a binding assay. The blocking activity of a compound was defined as its concentration yielding 50% inhibition (IC50) in the binding assay. IC50 calculation was performed using Probit regression analysis and correlation analysis between IC50 and Ki values was performed with nonparametric Spearman’s r (two-tailed) by using SPSS statistical software version 13.0 (SPSS, Chicago, IL).

A short description of another data set: MTS cytotoxicity assay. The format is cell-based, human (HeLa); rhesus monkey (LLC-MK2). On the procedure:
This assay was performed using CellTiter 96 aqueous nonradioactive cell proliferation kits (Promega, Madison, WI) as described elsewhere. Briefly, HeLa and LLC-MK2 cells were seeded at 5×10^4 cells/ml onto a 96-well plate overnight. After an incubation with each compound at various concentrations for 3 days (the compound was added one time at the beginning of the incubation), the culture medium was replaced with fresh one with 100 µl of MTS-phenazine methosulfate/well. After a further incubation at 37°C for 2 h, the color products of MTS were measured with a plate reader at 490 nm. The cytotoxicities of individual compounds were indicated by the decrease in cellular reduction of MTS into the colored product. The 50% cytotoxic concentrations (CC50 s) were determined as the concentrations of the compounds that caused 50% inhibition of cell growth compared with that of control cells without a compound.

Setting [2] is: IC50 Saliva A, blocking assay, type A saliva, mean ± standard deviation.
Where [3] appears, read: IC50 Saliva B, blocking assay, type B saliva, mean ± standard deviation.
Where [4] appears, read: Activity (IC50), against binding of VA387 to the A and B saliva.
The mark [5] stands for this setting: 3 days incubation, HeLa and LLC-MK2 cells, cell line not given, read-out: CC50.

The structures appear in SMILES notation. Like-named read-outs stand apart in the source and are kept apart here.

For the molecule `Cc1ccc(C2CC(=O)Nc3c2ccc2ccccc32)cc1[N+](=O)[O-]` (centres unmarked) [ZINC00181174], the figures for the IC50 in data set [1] (setting [2]) and in data set [1] (setting [3]) were 33.5 ± 0.68 µM and 33.7 ± 1.27 µM, respectively.
On to `CC(CCC(=O)O)C1CCC2C3CC=C4CC(O)CCC4(C)C3CCC12C` (centres unmarked) [ZINC04831336], for which the half-inhibitory concentration (IC50) in data set [1] (setting [4]) is 1 to 10 µM; in data set [1] (setting [2]), 7.63 ± 0.27 µM; in data set [1] (setting [3]), 7.65 ± 0.33 µM. Further, the CC50 at 3 days in “MTS cytotoxicity assay” (setting [5]) came out at 225 µM.
Turning to `Cc1noc2c1C1(C)CCC3C(CC=C4CC(O)CCC43C)C1C2` (centres unmarked) [ZINC04014899], the concentration for half-maximal inhibition (IC50) in data set [1] (setting [2]) was 33.9 ± 1.67 µM; in data set [1] (setting [3]) it was 34.5 ± 1.93 µM.
In turn, `CC12CCC(O)C=C1CCC1C2CCC2(C)C1CCC21CCC(=O)O1` (centres unmarked) [ZINC04081424] gave an IC50 in data set [1] (setting [4]) of 20 to 40 µM.
As to `C/C(=N/O)C1=CCC2C3CC[C@H]4C/C(=N\O)CC[C@]4(C)C3CC[C@]12C` (some centres unmarked) [ZINC04041115], the IC50 in data set [1] (setting [4]) is 1 to 10 µM; in data set [1] (setting [2]), 2.38 ± 0.15 µM; in data set [1] (setting [3]), 2.54 ± 0.21 µM. Also, in “MTS cytotoxicity assay”, the CC50 at 3 days is 203 µM.
As to `CC1(C)CC(=O)C2=C(C1)c1c(ccc3ccccc13)NC2` [ZINC00128665], the values for the half-maximal inhibitory concentration (IC50) in data set [1] (setting [2]) and in data set [1] (setting [3]) were 14.1 ± 0.53 µM and 14.9 ± 0.71 µM, respectively.
In the same order, the values of `O=C1CC(c2ccc([N+](=O)[O-])cc2)c2ccc3ccccc3c2N1` (centres unmarked) [ZINC00124088] are 24.5 ± 0.98 µM and 26.3 ± 1.24 µM.
As for `CC(=O)C1CCC2C3CCC4CC(O)CCC4(C)C3CCC12C` (centres unmarked) [ZINC05260830], the IC50 in data set [1] (setting [4]) was in the range of 1 to 10 µM. Moreover, in “MTS cytotoxicity assay” (setting [5]), the CC50 at 3 days came to 267 µM.
Consider `O=[N+]([O-])c1ccc2c(c1)C1C=CCC1C(C1CC=CCC1)N2` (centres unmarked) [ZINC04725822], for which the IC50 in data set [1] (setting [2]) came to 13.2 ± 1.04 µM; in data set [1] (setting [3]), 13.1 ± 0.87 µM.
Consider `C[C@]12CC[C@H](O)C[C@@H]1CC[C@@H]1[C@@H]2CC[C@@]2(C)[C@H]1CC[C@]2(C)O` [ZINC05223451], for which the concentration for half-maximal inhibition (IC50) in data set [1] (setting [4]) is 1 to 10 µM; in data set [1] (setting [2]), 3.37 ± 0.13 µM; in data set [1] (setting [3]), 3.39 ± 0.24 µM. Besides, in “MTS cytotoxicity assay” (setting [5]), the half-maximal cytotoxic concentration (CC50) at 3 days was 171 µM.
Consider `COc1cc([N+](=O)[O-])cc2c1NC(c1ccccn1)C1CC=CC21` (centres unmarked) [ZINC04450155], for which the values for the IC50 in data set [1] (setting [4]), in data set [1] (setting [2]) and in data set [1] (setting [3]) were 20 to 40 µM, 24.2 ± 0.74 µM and 24.3 ± 0.87 µM, respectively.
Turning to `CC1CCc2c(sc3ncn(C(C)C(=O)N/N=C/c4c(O)ccc5ccccc45)c(=O)c23)C1` (centres unmarked) [ZINC06166484], the IC50 in data set [1] (read-out: IC50 Saliva A, blocking assay, type A saliva, mean ± standard deviation) turned out to be 17 ± 1.06 µM; in data set [1] (read-out: IC50 Saliva B, blocking assay, type B saliva, mean ± standard deviation), 16.8 ± 0.87 µM.
As for `CC(=O)OCC(=O)C1CCC2C3CC=C4CC(O)CCC4(C)C3CCC12C` (centres unmarked) [ZINC00652738], the IC50 in data set [1] (setting [2]) is 30.9 ± 1.04 µM; in data set [1] (setting [3]), 30.1 ± 1.35 µM.
As for `CC(=O)C1=CCC2C3CC=C4CC(O)CCC4(C)C3CCC12C` (centres unmarked) [ZINC00968234], the IC50 in data set [1] (setting [4]) lay in the range of 20 to 40 µM.
Consider `O=C(O)c1ccc(C2Nc3c(F)cccc3C3C=CCC32)cc1` (centres unmarked) [ZINC04298453], for which the results for the half-inhibitory concentration (IC50) in data set [1] (setting [2]) and in data set [1] (setting [3]) were 38 ± 2.01 µM and 39.4 ± 1.53 µM, respectively.
On to `Nc1ccc2c(c1)C1C=CCC1C(c1ccc([N+](=O)[O-])cc1)N2` (centres unmarked) [ZINC04095376], for which the IC50 was 12.6 ± 0.87 µM in data set [1] (setting [2]) and 12.8 ± 0.64 µM in data set [1] (setting [3]).
Consider `CC12CCC3C(CCC4CC(=O)CCC43C)C1CCC2O` (centres unmarked) [ZINC03814360], for which the half-maximal inhibitory concentration (IC50) came to 36.9 ± 1.47 µM in data set [1] (setting [2]) and 35.7 ± 1.06 µM in data set [1] (setting [3]).
In the case of `C[C@]12CCC3C(CC[C@H]4CC=CC[C@]34C)C1CC/C2=N/NC(N)=S` (some centres unmarked) [ZINC04026813], the values for the concentration for half-maximal inhibition (IC50) in data set [1] (setting [4]), in data set [1] (setting [2]) and in data set [1] (setting [3]) were 1 to 10 µM, 8.7 ± 1.03 µM and 8.97 ± 0.63 µM, respectively. It took 212 µM to reach half-maximal cytotoxicity in the data set “MTS cytotoxicity assay” (CC50 at 3 days).
`CC12CCC(=NOCC(=O)NCC(=O)O)C=C1CCC1C2CCC2(C)C(O)CCC12` (centres unmarked) [ZINC04084183] came in with a half-maximal inhibitory concentration (IC50) in data set [1] (setting [4]) of 10 to 20 µM.
